Counter-ions that a name gives are not always drawn. Like-named read-outs stand apart in the source and are kept apart here.
Tests used:
[1] = target: arginine vasopressin V2 receptor (Oryctolagus cuniculus, UniProt G1TA00); assay: V2 receptor binding assay; set-up: species or system rabbit; details: for antagonism on V2 receptor (in words): compared with OPC-31260 and OPC-21268, cf. Table 1
V2 receptor = assay: V2 antagonism (water diuresis) in conscious rats (oral administration); format: in vivo, rat
Procedure: (4) V2 antagonism (water diuresis) in conscious rats (oral administration)
Each compound to be tested was suspended in 0.5% methylcellulose aqueous solution and orally administered in a dose of 3 mg/kg to male Wister rats (body weight, 270 to 300 g) which had been subjected to fasting with no water for 16 to 20 hours. Using a metabolic cage, urine samples were collected just after the administration of each test sample and until 4 hours after the administration to measure the amount of urine.

[2] = target: T1, arginine vasopressin V1 receptor (Rattus norvegicus, UniProt P30560); assay: V1 receptor binding assay; details: for antagonism on V1 receptor (in words): compared with OPC-31260 and OPC-21268, cf. Table 1
T1 construct: A rat liver membrane sample was prepared; from tissue; host or cells: rat liver membranes
Procedure: Usefulness of the compounds of the present invention was confirmed by the following tests. (1) V1 receptor binding assay
A rat liver membrane sample was prepared in accordance with the method of Nakamura et al. (J. Biol. Chem., 258, 9283 (1983)), and [^3 H]-Arg-vasopressin (2 nM, specific activity =75.8 Ci/mmol), 70 μg of the membrane sample and each drug to be tested (10^-8 to 10^-4 M) were incubated at 30° C. for 30 minutes in 250 μl of 100 mM Tris-HCl buffer (pH 8.0) containing 5 mM magnesium chloride, 1mM ethylenediaminetetraacetic acid (EDTA) and 0.1% bovine serum albumin (BSA). Thereafter, the incubation solution was sucked off using a cell harvester and free ligand and excess buffer were removed by passing the reaction mixture through a glass filter (GF/B), thereby trapping receptor-bound labeled ligand on the glass filter. The glass filter was taken out, thoroughly dried and then mixed with a liquid scintillation cocktail, and the amount of the membrane-bound [^3 H]-vasopressin was measured using a liquid scintillation counter to calculate the inhibition ratio by the following formula. [formula] C1 : amount of [^3 H]-vasopressin bound to the membrane in the coexistence of known amount of each drug to be tested and [^3 H]-vasopressin
C0 : amount of [^3 H]-vasopressin bound to the membrane when the drug to be tested was not added
B1 : amount of [^3 H]-vasopressin bound to the membrane in the presence of excess vasopressin (10^-6 M)
[formula] [L]: concentration of radioactive ligand KD: dissociation constant calculated from Scatchard plot
Negative logarithm of the thus calculated value was used as pKi value.

V1 receptor = assay: V1 antagonism in conscious rats (oral administration); format: in vivo, rat; details: 1 mg/kg oral, from 30 minutes to 6 hours after administration, AVP 30 mU/kg i.v.
[3] = rat liver membrane, [3H]-Arg-vasopressin 2 nM, read-out: Binding activity on arginine vasopressin V1 receptor (pki) (converted)

Sequence of arginine vasopressin V2 receptor (G1TA00 78-446): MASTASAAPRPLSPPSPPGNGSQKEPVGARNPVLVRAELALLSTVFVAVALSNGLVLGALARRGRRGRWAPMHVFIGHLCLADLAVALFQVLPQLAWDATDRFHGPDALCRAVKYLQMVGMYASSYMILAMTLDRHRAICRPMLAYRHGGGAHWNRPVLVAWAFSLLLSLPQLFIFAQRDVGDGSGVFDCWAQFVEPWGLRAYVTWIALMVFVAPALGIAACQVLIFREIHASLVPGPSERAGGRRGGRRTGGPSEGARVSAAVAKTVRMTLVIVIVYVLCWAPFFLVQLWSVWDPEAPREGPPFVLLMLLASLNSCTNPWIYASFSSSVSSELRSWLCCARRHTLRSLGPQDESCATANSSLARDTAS
T1 sequence (P30560 whole entry): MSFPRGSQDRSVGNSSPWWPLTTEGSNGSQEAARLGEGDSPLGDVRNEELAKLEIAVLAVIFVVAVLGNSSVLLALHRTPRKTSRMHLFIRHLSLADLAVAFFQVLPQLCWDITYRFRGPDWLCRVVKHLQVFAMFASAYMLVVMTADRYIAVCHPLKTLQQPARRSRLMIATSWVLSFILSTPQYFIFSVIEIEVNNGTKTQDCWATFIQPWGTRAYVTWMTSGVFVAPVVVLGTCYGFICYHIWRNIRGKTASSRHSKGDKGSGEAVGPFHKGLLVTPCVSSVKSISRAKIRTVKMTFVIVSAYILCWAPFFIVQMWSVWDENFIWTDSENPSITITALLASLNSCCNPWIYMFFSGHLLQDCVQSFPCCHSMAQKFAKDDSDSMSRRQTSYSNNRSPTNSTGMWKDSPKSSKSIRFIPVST

Cc1ccccc1C(=O)Nc1ccc(C(=O)N2CCCC(N(C)C)c3ccccc32)cc1 (centres unmarked) [(1), reference compound]
Binding activity on arginine vasopressin V2 receptor (pki) ([1]; rabbit renal medulla membrane, [3H]-Arg-vasopressin 2 nM): 8.01
amount of urine relative to the solvent-administered group (V2 receptor; 3 mg/kg oral, from 2 hours to 4 hours after administration, fasted conscious rats): almost the same as that in the solvent-administered group
amount of urine relative to the solvent-administered group (V2 receptor; po, 3 mg/kg, 2 h): 11 times
Binding activity on arginine vasopressin V1 receptor (pki) ([2]; rat liver membrane, [3H]-Arg-vasopressin 2 nM): 6.71

Nc1nc2c(s1)CCN(C(=O)c1ccc(NC(=O)c3ccccc3-c3ccccc3)cc1)c1ccccc1-2 [Example 1, 4'-[(2-amino-5,6-dihydro-4H-thiazolo[5,4-d][1]benzazepin-6-yl)carbonyl]-2-phenylbenzanilide hydrobromate]
Ki [2, 3]: 4.68 nM

N=C(N)Nc1nc2c(s1)CCN(C(=O)c1ccc(NC(=O)c3ccccc3-c3ccccc3)cc1)c1ccccc1-2 [Example 2, 4'-[(2-guanidino-5,6-dihydro-4H-thiazolo[5,4-d][1]benzazepin-6-yl)carbonyl]-2-phenylbenzanilide hydrobromate]
Ki [2, 3]: 1.51 nM

Cc1ccc(-c2ccccc2C(=O)Nc2ccc(C(=O)N3CCc4sc(NC(=N)N)nc4-c4ccccc43)cc2)cc1 [Example 4, 4'-[(2-guanidino-5,6-dihydro-4H-thiazolo[5,4-d][1]benzazepin-6-yl)carbonyl]-2-(4-methylphenyl)benzanilide hydrobromate]
Ki [2, 3]: 4.37 nM

Cc1nc(Cc2nc3c(s2)CCN(C(=O)c2ccc(NC(=O)c4ccccc4-c4ccccc4)cc2)c2ccccc2-3)c[nH]1 [Example 6, 4'-[[2-[4-(2-methylimidazolyl)methyl]-5,6-dihydro-4H-thiazolo[5,4-d][1]benzazepin-6-yl)carbonyl]-2-phenylbenzanilide.2HCl]
Ki [2, 3]: 11.2 nM

O=C(Nc1ccc(C(=O)N2CCc3sc(Cc4cccnc4)nc3-c3ccccc32)cc1)c1ccccc1-c1ccccc1 [Example 8, 4'-[[2-(3-pyridylmethyl)-5,6-dihydro-4H-thiazolo[5,4-d][1]benzazepin-6-yl)carbonyl]-2-phenylbenzanilide hydrochloride]
Ki [2, 3]: 18.2 nM

CN(C)CCNc1nc2c(s1)CCN(C(=O)c1ccc(NC(=O)c3ccccc3-c3ccccc3)cc1)c1ccccc1-2 [Example 10, 4'-[(2-dimethylaminoethylamino-5,6-dihydro-4H-thiazolo[5,4-d][1]benzazepin-6-yl)carbonyl]-2-phenylbenzanilide.2 HCl]
Ki [2, 3]: 2.45 nM

CN(C)CCCc1nc2c(s1)CCN(C(=O)c1ccc(NC(=O)c3ccccc3-c3ccccc3)cc1)c1ccccc1-2 [Example 12, 4'-[[2-(3-dimethylaminopropyl)-5,6-dihydro-4H-thiazolo[5,4-d][1]benzazepin-6-yl)carbonyl]-2-phenylbenzanilide hydrochloride]
Ki [2, 3]: 3.02 nM

NCCc1nc2c(s1)CCN(C(=O)c1ccc(NC(=O)c3ccccc3-c3ccccc3)cc1)c1ccccc1-2 [Example 15, 4'-[(2-aminoethyl-5,6-dihydro-4H-thiazolo[5,4-d][1]benzazepin-6-yl)carbonyl]-2-phenylbenzanilide hydrochloride]
Ki [2]: 1.23 nM

CC(C)O.Cl.NCC(=O)Nc1nc2c(s1)CCN(C(=O)c1ccc(NC(=O)c3ccccc3-c3ccccc3)cc1)c1ccccc1-2 [Example 17, 4'-[(2-glycylamino-5,6-dihydro-4H-thiazolo[5,4-d][1]benzazepin-6-yl)carbonyl]-2-phenylbenzanilide 2-propylalcohol hydrochloride]
antagonism on V2 receptor (in words) [1]: excellent antagonisms
antagonism on V1 receptor (in words) [2]: excellent antagonisms
Ki [2, 3]: 0.912 nM

Cc1nc2c(o1)-c1ccccc1N(C(=O)c1ccc(NC(=O)c3ccccc3-c3ccccc3)cc1)CC2 [Example 18(1), 4'-[(2-Methyl-5,6-dihydro-4H-oxazolo[4,5-d][1]benzazepin-6-yl)carbonyl]-2-phenylbenzanilide]
Ki [2, 3]: 4.27 nM

Cc1nc2c([nH]1)-c1ccccc1N(C(=O)c1ccc(NC(=O)c3ccccc3-c3ccccc3)cc1)CC2.Cl [Example 18(2), 4'-[(2-methyl-1,4,5,6-tetrahydroimidazo[4,5-d][1]benzazepin-6-yl)carbonyl]-2-phenylbenzanilide hydrochloride]
Pressure increase by AVP (diastolic blood pressure, pre-dose increase = 100%) (V1 receptor): ≤ 50%
antagonism on V2 receptor (in words) [1]: excellent antagonisms
amount of urine relative to the solvent-administered group (V2 receptor; po, 3 mg/kg): 8-10 times
amount of urine relative to the solvent-administered group (V2 receptor; po, 3 mg/kg, 2 h): 47-95 times
Ki [2]: 0.891 nM
antagonism on V1 receptor (in words) [2]: excellent antagonisms

CCc1nc2c([nH]1)-c1ccccc1N(C(=O)c1ccc(NC(=O)c3ccccc3-c3ccccc3)cc1)CC2.Cl [Example 20, 4'-[(2-ethyl-1,4,5,6-tetrahydroimidazo[4,5-d][1]benzazepin-6-yl)carbonyl]-2-phenylbenzanilide hydrochloride]
antagonism on V2 receptor (in words) [1]: excellent antagonisms
amount of urine relative to the solvent-administered group (V2 receptor; po, 3 mg/kg): 8-10 times
amount of urine relative to the solvent-administered group (V2 receptor; po, 3 mg/kg, 2 h): 47-95 times
antagonism on V1 receptor (in words) [2]: excellent antagonisms
Ki [2, 3]: 0.661 nM

CCCc1nc2c([nH]1)-c1ccccc1N(C(=O)c1ccc(NC(=O)c3ccccc3-c3ccccc3)cc1)CC2.Cl [Example 21, 4'-[(2-propyl-1,4,5,6-tetrahydroimidazo[4,5-d][1]benzazepin-6-yl)carbonyl]-2-phenylbenzanilide hydrochloride]
Pressure increase by AVP (diastolic blood pressure, pre-dose increase = 100%) (V1 receptor): ≤ 50%
antagonism on V2 receptor (in words) [1]: excellent antagonisms
amount of urine relative to the solvent-administered group (V2 receptor; po, 3 mg/kg): 8-10 times
amount of urine relative to the solvent-administered group (V2 receptor; po, 3 mg/kg, 2 h): 47-95 times
antagonism on V1 receptor (in words) [2]: excellent antagonisms
Ki [2, 3]: 1.82 nM

Cl.O=C(Nc1ccc(C(=O)N2CCc3nc(C4CC4)[nH]c3-c3ccccc32)cc1)c1ccccc1-c1ccccc1 [Example 23, 4'-[(2-cyclopropyl-1,4,5,6-tetrahydroimidazo[4,5-d][1]benzazepin-6-yl)carbonyl]-2-phenylbenzanilide hydrochloride]
Pressure increase by AVP (diastolic blood pressure, pre-dose increase = 100%) (V1 receptor): ≤ 50%
antagonism on V2 receptor (in words) [1]: excellent antagonisms
amount of urine relative to the solvent-administered group (V2 receptor; po, 3 mg/kg): 8-10 times
amount of urine relative to the solvent-administered group (V2 receptor; po, 3 mg/kg, 2 h): 47-95 times
antagonism on V1 receptor (in words) [2]: excellent antagonisms

Cc1nc2c([nH]1)-c1ccccc1N(C(=O)c1ccc(NC(=O)c3ccccc3C)cc1)CC2 [Example 24, 2-methyl-4'-[(2-methyl-1,4,5,6-tetrahydroimidazo[4,5-d][1]benzazepin-6-yl)carbonyl]benzanilide hydrochloride]
Ki [2, 3]: 17 nM

Cc1nc2c([nH]1)-c1ccccc1N(C(=O)c1ccc(NC(=O)c3ccccc3OC(C)C)cc1)CC2 [Example 27, 2-isopropoxy-4'-[(2-methyl-1,4,5,6-tetrahydroimidazo[4,5-d][1]benzazepin-6-yl)carbonyl]benzanilide hydrochloride]
Ki [2, 3]: 6.17 nM

NCCCCc1nc2c([nH]1)-c1ccccc1N(C(=O)c1ccc(NC(=O)c3ccccc3-c3ccccc3)cc1)CC2 [Example 37, 4'-[[2-(4-aminobutyl)-1,4,5,6-tetrahydroimidazo[4,5-d][1]benzazepin-6-yl]carbonyl]-2-phenylbenzanilide.2 HCl]
antagonism on V2 receptor (in words) [1]: excellent antagonisms
antagonism on V1 receptor (in words) [2]: excellent antagonisms
Ki [2, 3]: 0.324 nM

Cc1nc2c([nH]1)-c1ccccc1N(C(=O)c1ccc(NC(=O)C3(c4ccccc4)CCCC3)cc1)CC2 [Example 38, N-[4-[(2-methyl-1,4,5,6-tetrahydroimidazo[4,5-d][1]benzazepin-6-yl)carbonyl]phenylcyclopentanecarboxamido hydrochloride]
Ki [2, 3]: 5.75 nM

From US5723606A, “Condensed benzazepine derivative and pharmaceutical composition thereof” (priority 1993, dated 1998)
